Reference: patent US7572818B2, “2-pyridylethylbenzamide derivative” (Bayer Cropscience S.A., priority 2002, dated 2009)

Assays:
[1] = system: Alternaria brassicae; assay: In vivo test of activity on Alternaria brassicae (crucifer black spot) on radish; details: preventive spray 24 h before inoculation
Experimental: In Vivo Test of Activity on Alternaria brassicae (Crucifer Black Spot)
(§1) An aqueous solution of the active material to be tested is prepared at a concentration of 2 g/l by grinding in solution 1 or solution 2:
(§2) • Water • Tween 80 diluted to 10% in water: 5 μl/mg of active material • Clay in a sufficient amount for active material+clay to equal 100 mg; Solution 2
(§3) Concentrated solution containing surfactants and adjuvants conventionally used: 200 μl/mg of active material.
(§4) The aqueous solution is diluted with water so as to obtain the desired concentration.
Radishes of the Pernot variety are sown in a 50/50 pozzolan/peat substrate and maintained at 18-22° C. The treatment is carried out by spraying the aqueous suspension. The untreated control plants are sprayed with water. 24 hours after treatment, the plants are inoculated by spraying a solution of Alternaria brassicae spores (40 000 spores/ml) originating from a 12-day culture.
The radish plants are then maintained at 18-20° C. in a humid atmosphere. The effectiveness of the products is evaluated relative to the control plants after seven to eight days of incubation.
(§5) The effectiveness of the molecules is estimated, at 500 g/ha, 250 g/ha or 330 ppm, by the percentage of control relative to untreated plants. Under these conditions, good effectiveness is defined as more than 80% effectiveness. Average effectiveness is defined as an effectiveness between 50 and 80%. Poor effectiveness is defined as an effectiveness between 10 and 50% and zero effectiveness is defined as less than 10% effectiveness.

[2] = system: Pyrenophora teres; assay: In vivo test of activity on Pyrenophora teres (barley net blotch); details: 330 ppm, preventive spray 24 h before inoculation
Experimental: In Vivo Test of Activity on Pyrenophora teres (Barley Net Blotch)
as §1, §2, §3, §4
Barley plants of the Express variety are sown in a 50/50 pozzolan/peat substrate and maintained at 12° C. The treatment is carried out at the 1-leaf stage (10 cm) by spraying the aqueous suspension. The untreated control plants are sprayed with water.
24 hours after treatment, the plants are inoculated by spraying a solution of Pyrenophora teres spores (10 000 spores/ml) originating from a 10-day culture.
The barley plants are then maintained at 18° C. in a humid atmosphere. The effectiveness of the products is evaluated relative to the control plants after eight to fifteen days of incubation.
as §5

[3] = system: Botrytis cinerea; assay: In vivo test of activity on Botrytis cinerea on cucumber; details: preventive spray 24 h before inoculation
Experimental: In Vivo Test of Activity on Botrytis cinerea on Cucumber
as §1, §2, §3, §4
Cucumbers of the Marketer variety are sown in a 50/50 pozzolan/peat substrate and maintained at 18-22° C. The treatment is carried out by spraying the aqueous suspension. The untreated control plants are sprayed with water.
24 hours after treatment, the plants are inoculated by spraying a solution of Botrytis cinerea spores (150 000 spores/ml) originating from a 15-day culture.
The cucumber plants are then maintained at 11-15° C. in a humid atmosphere. The effectiveness of the products is evaluated relative to the control plants after seven to eight days of incubation.
as §5

[4] = Botrytis cinerea, topical, read-out: effectiveness (percentage of control relative to untreated plants)

SMILES	effectiveness (percentage of control relative to untreated plants) ([1]; 330 ppm)	effectiveness (percentage of control relative to untreated plants) [2]	also measured
Cc1cc(F)ccc1C(=O)NCCc1ncc(C(F)(F)F)cc1Cl [Compound A-117]	good to average	good to average	–
CCNC(=O)C(Cc1ncc(C(F)(F)F)cc1Cl)NC(=O)c1ccc(Cl)cc1 (stereo not drawn) [compound 306, N-{1-ethylcarbamoyl-2-[3-chloro-5-(trifluoromethyl)-2-pyridinyl]ethyl}-4-chlorobenzamide, reference compound]	–	–	pest or weed control at 250 g/ha [3, 4]: < 10%
O=C(NCCc1ncc(C(F)(F)F)cc1Cl)c1c(Cl)cccc1Cl [N-{2-[3-chloro-5-(trifluoromethyl)-2-pyridinyl]-ethyl}-2,6-dichlorobenzamide, reference compound]	poor (Poor effectiveness is defined as an effectiveness between 10 and 50%)	–	effectiveness (percentage of control relative to untreated plants) ([1]; 250 g/ha): zero (zero effectiveness is defined as less than 10% effectiveness); pest or weed control at 250 g/ha [3, 4]: < 10%; pest or weed control at 330 ppm ([3]; Botrytis cinerea, topical, 330 ppm, read-out: effectiveness (percentage of control relative to untreated plants)): < 10%
CNC(=O)C(Cc1ncc(C(F)(F)F)cc1Cl)NC(=O)c1ccc(OC)cc1 (stereo not drawn) [compound 315, N-{1-methylcarbamoyl-2-[3-chloro-5-(trifluoromethyl)-2-pyridinyl]ethyl}-4-methoxybenzamide, reference compound]	–	–	pest or weed control at 250 g/ha [3, 4]: < 10%
O=C(NCCc1ncc(C(F)(F)F)cc1Cl)c1cc(F)ccc1Br [Compound A-175]	good to average	–	effectiveness (percentage of control relative to untreated plants) ([3]; 330 ppm): good to average
Cc1ccc(Br)c(C(=O)NCCc2ncc(C(F)(F)F)cc2Cl)c1 [Compound A-134]	good to average	good to average	–
CNC(=O)C(Cc1ncc(C(F)(F)F)cc1Cl)NC(=O)c1ccccc1 (stereo not drawn) [compound 314, N-{1-methylcarbamoyl-2-[3-chloro-5-(trifluoromethyl)2-pyridinyl]ethyl}-benzamide, reference compound]	–	–	pest or weed control at 250 g/ha [3, 4]: < 10%
O=C(NCCc1c(Cl)cc(C(F)(F)F)c[n+]1[O-])c1ccccc1C(F)(F)F [Compound B-1]	good to average	good to average	–
Cc1ccc(C(=O)NCCc2ncc(C(F)(F)F)cc2Cl)c(C)c1 [Compound A-61]	good to average	good to average	–
N#Cc1ccccc1C(=O)NCCc1ncc(C(F)(F)F)cc1Cl [Compound A-170]	good to average	–	effectiveness (percentage of control relative to untreated plants) ([3]; 330 ppm): good to average
CCNC(=O)C(Cc1ncc(C(F)(F)F)cc1Cl)NC(=O)c1ccccc1 (stereo not drawn) [compound 304, N-{1-ethylcarbamoyl-2-[3-chloro-5-(trifluoromethyl)-2-pyridinyl]ethyl}-benzamide, reference compound]	–	–	pest or weed control at 250 g/ha [3, 4]: < 10%
COc1ccc(C(=O)NCCc2ncc(C(F)(F)F)cc2Cl)c(OC)c1 [Compound A-83]	good to average	good to average	–
CSc1cc(F)ccc1C(=O)NCCc1ncc(C(F)(F)F)cc1Cl [Compound A-140]	good to average	good to average	–
CS(=O)(=O)c1cc(Br)ccc1C(=O)NCCc1ncc(C(F)(F)F)cc1Cl [Compound A-133]	good to average	good to average	–
CSc1ccccc1C(=O)NCCc1ncc(C(F)(F)F)cc1Cl [Compound A-167]	good to average	good to average	–
Cc1ccc(Cl)c(C(=O)NCCc2ncc(C(F)(F)F)cc2Cl)c1F [Compound A-182]	good to average	–	–
COc1cc(OC)cc(C(=O)NCCc2ncc(C(F)(F)F)cc2Cl)c1 [Compound A-14]	–	–	effectiveness (percentage of control relative to untreated plants) ([1]; 500 g/ha): good to average

SMILES	effectiveness (percentage of control relative to untreated plants) ([1]; 330 ppm)	effectiveness (percentage of control relative to untreated plants) [2]	also measured
CS(=O)(=O)c1ccc(C(=O)NCCc2ncc(C(F)(F)F)cc2Cl)c(Cl)c1O [Compound A-136]	good to average	–	–
O=C(NCCc1ncc(C(F)(F)F)cc1Cl)c1cc(F)ccc1C(F)(F)F [Compound A-172]	–	–	effectiveness (percentage of control relative to untreated plants) ([3]; 330 ppm): good to average
O=C(NCCc1ncc(C(F)(F)F)cc1Cl)c1ccc(Cl)c(F)c1Cl [Compound A-125]	good to average	good to average	–
O=C(NCCc1ncc(C(F)(F)F)cc1Cl)c1ccccc1OC(F)(F)F [Compound A-89]	good to average	good to average	–
O=C(NCCc1ncc(C(F)(F)F)cc1Cl)c1ccc(Cl)cc1Br [Compound A-110]	good to average	–	–
CSc1c(C(=O)NCCc2ncc(C(F)(F)F)cc2Cl)ccc(Cl)c1Cl [Compound A-144]	good to average	–	–
O=C(NCCc1ncc(C(F)(F)F)cc1Cl)c1ccc([N+](=O)[O-])cc1Cl [Compound A-96]	good to average	good to average	–
O=C(NCCc1ncc(C(F)(F)F)cc1Cl)c1cc(Cl)ccc1Cl [Compound A-49]	good to average	–	–
O=C(NCCc1ncc(C(F)(F)F)cc1Cl)c1ccc(Cl)cc1I [Compound A-176]	good to average	–	–
COc1cc(Cl)ccc1C(=O)NCCc1ncc(C(F)(F)F)cc1Cl [Compound A-87]	good to average	good to average	–
CCNC(=O)C(Cc1ncc(C(F)(F)F)cc1Cl)NC(=O)c1ccccc1Br (stereo not drawn) [compound 310, N-{1-ethylcarbamoyl-2-[3-chloro-5-(trifluoromethyl)-2-pyridinyl]ethyl}-2-bromobenzamide, reference compound]	–	–	pest or weed control at 250 g/ha [3, 4]: < 10%
O=C(NCCc1ncc(C(F)(F)F)cc1Cl)c1cc(F)c(F)cc1Cl [Compound A-107]	good to average	–	–
Cc1cccc(C(=O)NCCc2ncc(C(F)(F)F)cc2Cl)c1Br [Compound A-180]	good to average	–	–
Cc1cc(C(=O)NCCc2ncc(C(F)(F)F)cc2Cl)c(Cl)c(C)c1F [Compound A-123]	good to average	–	–
Cc1ccc(I)c(C(=O)NCCc2ncc(C(F)(F)F)cc2Cl)c1 [Compound A-177]	good to average	–	–
Cc1cc(Br)ccc1C(=O)NCCc1ncc(C(F)(F)F)cc1Cl [Compound A-80]	good to average	–	–
COc1ccc(C(=O)NCCc2ncc(C(F)(F)F)cc2Cl)cc1OC [Compound A-13]	–	–	effectiveness (percentage of control relative to untreated plants) ([1]; 500 g/ha): good to average
